Key:
[1] = tested on: JAK2/JAK1; assay: JAK enzyme activity inhibition, JAK2 versus JAK1 selectivity; assay type: biochemical; settings: ratio of JAK2 IC50 to JAK1 IC50
Experimental: (§1) The tested compounds were dissolved in DMSO to provide a 10 mM mother solution. The compound was diluted to 1 mM in DMSO before use, and was gradient diluted by 3 folds to altogether 11 concentrations. After the buffer was prepared, JAK1, JAK2, JAK3 and the substrate were mixed with pre-diluted compounds in different concentrations, and allowed to stand at room temperature for 30 minutes, while each concentration was duplicated for twice. ATP was added and reacted at room temperature for 90 minutes, and antibody was added for detection after the reaction was completed.

[2] = tested on: mouse spleen cells; assay: CD3/CD28 antibody-induced mouse spleen cell proliferation (CCK8); assay type: cell-based; settings: for concentration at which inhibition of lymphocyte proliferation began: Anti-CD3/CD28 as the stimuli; for EC50: mouse spleen cells, CD3/CD28 antibodies as stimulus, read-out: Inhibition activity (EC50), CD3/CD28
[3] = tested on: JAK3/JAK1; assay: JAK enzyme activity inhibition, JAK3 versus JAK1 selectivity; assay type: biochemical; settings: ratio of JAK3 IC50 to JAK1 IC50
Experimental: as §1

[4] = tested on: mouse spleen cells; assay: Mitogen ConA-induced mouse spleen cell proliferation (CCK8); assay type: cell-based; settings: for concentration at which inhibition of lymphocyte proliferation began: ConA as the stimuli; for inhibition to the non-specific immunosuppression induced by mitogen: in words, compared with specific immunity; for EC50: mouse spleen cells, ConA as stimulus, read-out: Inhibition activity (EC50), ConA induction
Experimental: […] 5*10^5/well, with or without 50 uL of ConA at a concentration of 2.5 ug/uL as well as 50 uL inhibitors at a different concentration, while the negative control wells were supplemented with 50 uL of complete 1640 medium. After 48 hours of culture, the cell culture supernatant was collected for 100 uL/well for subsequent ELISA, and 10 uL/well of CCK8 reagent was added to detect the cell proliferation. The proliferation of immune cells was microscopic observed in each group.
[…] mouse spleen cells were adjusted to a cell concentration of 5*10^6/mL in complete 1640 medium, […], i.e., 5*10^5/well, […], as well as 50 uL of different concentrations of inhibitor (compound 1-6) while negative control well was supplemented with 50 uL of complete 1640 medium. […] The proliferation of immune cells was microscopic observed in each group, and the EC50 value was calculated.

| Compound | Selectivity fold JAK2/JAK1 IC50 ratio [1] [fold] | concentration at which inhibition of lymphocyte proliferation began [2] [µM] | EC50 [2] [µM] | Selectivity fold JAK3/JAK1 IC50 ratio [3] [fold] | concentration at which inhibition of lymphocyte proliferation began [4] [µM] | inhibition to the non-specific immunosuppression induced by mitogen [4] | EC50 [4] [µM] |
| --- | --- | --- | --- | --- | --- | --- | --- |
| CN(c1ccc(N)cc1)c1ncnc2[nH]ccc12 [Compound 1, N-Methyl-N-(7H-pyrrolo[2,3-d]pyrimidin-4-yl)phenyl-1,4-diamine] | 7 | 10 | 22.7 | 2 | 10 | weak | 53.9 |
| 5-methyl-isoxazole-{4-methyl-(7H-pyrrolo[2,3-d]pyrimidin-4-yl)-amino]-cyclohex yl}-amine [Compound 3] | >10 | 10 | 65.7 | >10 | 10 | weak | 90.7 |
| C/C(O)=C(\C#N)C(=O)Nc1ccc(C(F)(F)F)cc1 [Compound A771726, A771726, reference compound] | – | – | > 200 | – | – | – | > 200 |
| C[C@@H]1CCN(C(=O)CC#N)C[C@@H]1N(C)c1ncnc2[nH]ccc12 [Tofatinib, reference compound] | 2 | – | – | <1 | – | – | – |
| Cc1oncc1C(=O)Nc1ccc(N(C)c2ncnc3[nH]ccc23)cc1 [Compound 2] | >10 | 50 | 15.1 | >10 | 10 | – | 40.3 |
| 2-cyano-3-hydroxy-2-butene-{4-[methyl-(7H-pyrrolo[2,3-d]pyrimidin-4-yl)-amino]-cyclohexyl]-amide [Compound 5] | >10 | – | > 100 | >10 | – | – | > 200 |
| 2-cyano-3-hydroxy-2-butene-{4-[methyl-(7H-pyrrolo[2,3-d]pyrimidin-4-yl)-amino]-phenyl]-amide [Compound 4] | 7 | 50 | 30.9 | 5 | 100 | – | 61.2 |

Reference: patent publication US11591333B2, “Substituted pyrrolo[2,3-d]pyrimidines as janus kinase inhibitors” (CINKATE PHARM TECH (SHANGHAI) CO.,LTD., priority 2016, dated 2023)
